Reference: patent US20100093642A1, “NOVEL POLYPEPTIDES” (priority 2006, published 2010)
Residues, ends and D or L forms follow the SMILES beside them. No end group written: not given here.

Assays:
Format in all cases: cell-based
[1] = test system: human colorectal adenocarcinoma cell line HT-29; details: 24 h
[2] = test system: human embryonic lung fibroblast cell line MRC-5; details: 24 h
[3] = test system: murine B lymphoma (reticulum cell sarcoma) cell line A20; details: 4 h
Experimental: The cytotoxic effects of the peptides on different human tumour cells were measured using the MTT colorimetric assay (Mosmann, 1983). MIT (3-(4-5-dimethylthiazol-2-yl)-2,5-diphenyl tetrazolium bromide) is a soluble tetrazolium salt yielding a yellow solution when prepared in media or salt solutions lacking phenol red. Dissolved MIT is converted to an insoluble purple formazan by cleavage of the tetrazolium ring by dehydrogenase enzymes. This water insoluble formazan can be solubilized using isopropanol or other solvents and the dissolved material is measured spectrophotometrically. The absorbance was measured as a function of concentration of converted dye. The conversion of the soluble dye to the insoluble purple formazan is utilized in assays for measurement of cell proliferation. […] We used this assay to measure the degree of cell death caused by the peptides.
CT26 and A20 were maintained in RPMI-1640 medium supplemented with 10% heat inactivated FBS and 1% L-glutamine in a humidified atmosphere of 5% CO2 at 37° C. The human embryonic fibroblast cell line, MRC-5, was cultured as a monolayer in MEM medium, under the same conditions as described for the tumour cell lines. CT26 and MRC-5 cells to be used in the assay were grown to a minimum of 75% confluency, trypsinated and split to single cell suspension, counted and centrifuged at 1500 rpm for 7 min. The cell pellet was resuspended to a concentration of 1-2×10^5 cells/ml in RPMI-1640 medium without FBS and L-glutamine-L-alanine (assay-medium). The A20 cells were grown in suspension and adjusted to a concentration of 6×10^5 cells/ml in assay medium. All cell lines were routinely tested for mycoplasma infection using a PCR-based mycoplasma detection kit (MycoSensor PCR Assay Kit, Stratagene), following the supplier's instructions. All cell lines were mycoplasma free.
The cytotoxicity was measured using the MTT method (Mosmann, 1983), with minor modifications. The adherent cells (CT26 and MRC-5) were applied in 96-well culture plates in a volume of 100 μl assay medium and incubated at 37° C. for 24 hours. The A20 cells were applied to the microtiter plates just prior to testing. The medium was removed and the cells were treated with 100 μl of peptide solution (concentrations ranging from 0 to 400 μg/ml), diluted in serum-free medium, and the plates were incubated at 37° C. for 4 hours. Cells treated with Triton X-100 (1%) were used as positive control (100% killing) whereas cells plus medium only were used as negative control. Following the incubation period, 10 and 20 μl MTT (5 mg/ml, dissolved in PBS) were added to each well in the adherent cells (CT26 and MRC-5) and the A20 cells, respectively. After further incubation for 2 hours, a volume of 70 μl of the supernatant was removed and 100 μl acid alcohol (0.04 M HCl in isopropanol) added to each well in the adherent cell lines. For the cells grown in suspension (A20), a volume of 130 μl of the supernatant was removed and 100 μl acid alcohol was added. The plates were placed on a shaker for 1 hour at room temperature and read spectrophotometrically at 590 nm in a microtiter plate reader (Thermomax Molecular devices, New Jersey, USA). Cell survival (%, averaging at least 2 parallels) and IC50 values were estimated as described above.

With GWFKKTFHKVSHAVKSGIHAGQRGCSALGF [P17 HC] the IC50 [1] was 52 µM, the IC50 [2] was 53 µM and the IC50 [3] was 3.9 µM.
`CC[C@H](C)[C@H](NC(=O)CNC(=O)[C@H](CO)NC(=O)[C@H](CCCCN)NC(=O)[C@@H](NC(=O)[C@H](C)NC(=O)[C@H](Cc1c[nH]cn1)NC(=O)[C@H](CO)NC(=O)[C@@H](NC(=O)[C@H](CCCCN)NC(=O)[C@H](Cc1c[nH]cn1)NC(=O)[C@H](Cc1ccccc1)NC(=O)[C@@H](NC(=O)[C@H](CCCCN)NC(=O)[C@H](CCCCN)NC(=O)[C@H](Cc1ccccc1)NC(=O)C(Cc1c[nH]c2ccc(Br)cc12)NC(=O)CN)[C@@H](C)O)C(C)C)C(C)C)C(=O)N[C@@H](Cc1c[nH]cn1)C(=O)N[C@@H](C)C(=O)NCC(=O)N[C@@H](CCC(N)=O)C(=O)N[C@@H](CCCNC(=N)N)C(=O)NCC(=O)N[C@@H](CS)C(=O)N[C@@H](CO)C(=O)N[C@@H](C)C(=O)N[C@@H](CC(C)C)C(=O)NCC(=O)N[C@@H](Cc1ccccc1)C(=O)O` (stereo partly shown) [P17 HC-Br] (HELM PEPTIDE1{G.[O=C(C(Cc1c[nH]c2ccc(Br)cc12)N[*:1])[*:2]].F.K.K.T.F.H.K.V.S.H.A.V.K.S.G.I.H.A.G.Q.R.G.C.S.A.L.G.F}$$$$V2.0) showed an IC50 [3] of 24.1 µM.
